Source: US9512141B2, “Pyrazine derivatives as CB2 receptor agonists” (Hoffmann-La Roche Inc., priority 2012, dated 2016)

Legend:
[1] = target: human CB1 receptors (Homo sapiens (Human), UniProt P21554); assay: cAMP assay (functional), CHO cells expressing human CB1 receptors; format: cell-based; conditions: functional cAMP assay, CHO cells expressing human CB1; read-out: human CB1 EC50
Protocol: (§1) CHO cells expressing human CB1 or CB2 receptors are seeded 17-24 hours prior to the experiment 50.000 cells per well in a black 96 well plate with flat clear bottom (Corning Costar #3904) in DMEM (Invitrogen No. 31331), 1×HT supplement, with 10% fetal calf serum and incubated at 5% CO2 and 37° C. in a humidified incubator. The growth medium was exchanged with Krebs Ringer Bicarbonate buffer with 1 mM IBMX and incubated at 30° C. for 30 min. Compounds were added to a final assay volume of 100 μl and incubated for 30 min at 30° C. Using the cAMP-Nano-TRF detection kit the assay (Roche Diagnostics) was stopped by the addition of 50 μl lysis reagent (Tris, NaCl, 1.5% Triton X100, 2.5% NP40, 10% NaN3) and 50 μl detection solutions (20 μM mAb Alexa700-cAMP 1:1, and 48 μM Ruthenium-2-AHA-cAMP) and shaken for 2 h at room temperature. The time-resolved energy transfer is measured by a TRF reader (Evotec Technologies GmbH), equipped with a ND:YAG laser as excitation source. The plate is measured twice with the excitation at 355 nm and at the emission with a delay of 100 ns and a gate of 100 ns, total exposure time 10 s at 730 (bandwidth 30 nm) or 645 nm (bandwidth 75 nm), respectively. The FRET signal is calculated as follows: FRET=T730-Alexa730-P (T645-B645) with P=Ru730-B730/Ru645-B645, where T730 is the test well measured at […], T645 is the test well measured at 645 nm, B730 and B645 are the buffer controls at 730 nm and 645 nm, respectively. cAMP content is determined from the function of a standard curve spanning from 10 μM to 0.13 nM cAMP.
(§2) EC50 values were determined using Activity Base analysis (ID Business Solution, Limited). The EC50 values for a wide range of cannabinoid agonists generated from this assay were in agreement with the values published in the scientific literature.

[2] = target: human CB2 receptors (Homo sapiens (Human), UniProt P34972); assay: cAMP assay (functional), CHO cells expressing human CB2 receptors; format: cell-based; conditions: functional cAMP assay, CHO cells expressing human CB2; read-out: human CB2 EC50
Protocol: as §1, §2

Sequence of human CB1 receptors (P21554 whole entry): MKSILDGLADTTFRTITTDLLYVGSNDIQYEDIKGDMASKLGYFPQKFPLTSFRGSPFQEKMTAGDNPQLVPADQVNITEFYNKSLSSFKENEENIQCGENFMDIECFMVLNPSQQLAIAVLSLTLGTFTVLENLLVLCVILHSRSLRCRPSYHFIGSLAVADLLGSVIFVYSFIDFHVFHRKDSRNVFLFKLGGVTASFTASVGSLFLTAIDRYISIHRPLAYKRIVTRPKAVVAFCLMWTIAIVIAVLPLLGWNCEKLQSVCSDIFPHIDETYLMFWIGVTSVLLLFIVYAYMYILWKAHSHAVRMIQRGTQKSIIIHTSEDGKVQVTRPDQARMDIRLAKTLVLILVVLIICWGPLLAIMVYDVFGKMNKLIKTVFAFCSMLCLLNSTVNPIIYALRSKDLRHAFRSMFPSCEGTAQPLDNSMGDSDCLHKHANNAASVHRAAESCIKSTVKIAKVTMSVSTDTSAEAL
Sequence of human CB2 receptors (P34972 whole entry): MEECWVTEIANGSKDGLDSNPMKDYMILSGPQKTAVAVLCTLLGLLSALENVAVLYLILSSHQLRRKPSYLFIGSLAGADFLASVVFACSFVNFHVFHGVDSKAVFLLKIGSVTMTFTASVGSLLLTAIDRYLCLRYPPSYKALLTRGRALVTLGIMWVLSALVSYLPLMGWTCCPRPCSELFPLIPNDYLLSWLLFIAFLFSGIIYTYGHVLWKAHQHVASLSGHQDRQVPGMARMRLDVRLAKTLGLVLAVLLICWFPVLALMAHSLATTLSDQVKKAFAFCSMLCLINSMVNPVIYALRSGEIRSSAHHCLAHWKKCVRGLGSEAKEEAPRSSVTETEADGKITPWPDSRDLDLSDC

| Structure (SMILES) | EC50 [1] [µM] | EC50 [2] [µM] |
| --- | --- | --- |
| O=C(c1cnc(N2CC(F)(F)C2)c(OCC2CC2)n1)N1CCC(F)(F)C1 [Example 8, [6-Cyclopropylmethoxy-5-(3,3-difluoro-azetidin-1-yl)-pyrazin-2-yl]-(3,3-difluoro-pyrrolidin-1-yl)-methanone] | > 10 | 0.0298 |
| O=C(c1cnc(N2CC(F)(F)C2)c(OCC2CC2)n1)N1CCOCC12CC2 [Example 10, [6-Cyclopropylmethoxy-5-(3,3-difluoro-azetidin-1-yl)-pyrazin-2-yl]-(7-oxa-4-aza-spiro[2.5]oct-4-yl)-methanone] | > 10 | 0.015 |
| CCOC(=O)CN(C(=O)c1cnc(N2CC(F)(F)C2)c(OCC2CC2)n1)C(C)(C)C [Example 11, {tert-Butyl-[6-cyclopropylmethoxy-5-(3,3-difluoro-azetidin-1-yl)-pyrazine-2-carbonyl]-amino}-acetic acid ethyl ester] | > 10 | 0.0068 |
| COCC(C)(C)N(C)C(=O)c1cnc(N2CC(F)(F)C2)c(OCC2CC2)n1 [Example 12, 6-Cyclopropylmethoxy-5-(3,3-difluoro-azetidin-1-yl)-pyrazine-2-carboxylic acid (2-methoxy-1,1-dimethyl-ethyl)-methyl-amide] | > 10 | 0.0092 |
| CC1(C)CN(C(=O)c2cnc(N3CC(F)(F)C3)c(OCC3CC3)n2)CCO1 [Example 13, [6-Cyclopropylmethoxy-5-(3,3-difluoro-azetidin-1-yl)-pyrazin-2-yl]-(2,2-dimethyl-morpholin-4-yl)-methanone] | > 10 | 0.0685 |
| COCC(C)(C)N(C)C(=O)c1cnc(C2CC2)c(OCC2CC2)n1 [Example 14, 5-Cyclopropyl-6-cyclopropylmethoxy-pyrazine-2-carboxylic acid (2-methoxy-1,1-dimethyl-ethyl)-methyl-amide] | > 10 | 0.0146 |
| COC(=O)[C@@H]1CCCN1C(=O)c1cnc(C2CC2)c(OCC2CC2)n1 [Example 16, (S)-1-(5-Cyclopropyl-6-cyclopropylmethoxy-pyrazine-2-carbonyl)-pyrrolidine-2-carboxylic acid methyl ester] | > 10 | 0.191 |
| O=C(c1cnc(C2CC2)c(OCC2CC2)n1)N1CCOCC12CC2 [Example 17, (5-Cyclopropyl-6-cyclopropylmethoxy-pyrazin-2-yl)-(7-oxa-4-aza-spiro[2.5]oct-4-yl)-methanone] | > 10 | 0.14 |
| NC(=O)[C@@H]1CC(F)(F)CN1C(=O)c1cnc(N2CC(F)(F)C2)c(OCC2CC2)n1 [Example 19, (S)-1-[6-Cyclopropylmethoxy-5-(3,3-difluoro-azetidin-1-yl)-pyrazine-2-carbonyl]-4,4-difluoro-pyrrolidine-2-carboxylic acid amide] | > 10 | 0.0057 |
| O=C(c1cnc(N2CC(F)(F)C2)c(OCC2CC2)n1)N1CCN(CCO)CC1 [Example 20, [6-Cyclopropylmethoxy-5-(3,3-difluoro-azetidin-1-yl)-pyrazin-2-yl]-[4-(2-hydroxy-ethyl)-piperazin-1-yl]-methanone] | > 10 | 0.316 |
| CC1(C)CCCN1C(=O)c1cnc(N2CC(F)(F)C2)c(OCC2CC2)n1 [Example 21, [6-Cyclopropylmethoxy-5-(3,3-difluoro-azetidin-1-yl)-pyrazin-2-yl]-(2,2-dimethyl-pyrrolidin-1-yl)-methanone] | > 10 | 0.0043 |
| COC(=O)[C@H]1CCCN1C(=O)c1cnc(N2CC(F)(F)C2)c(OCC2CC2)n1 [Example 22, (R)-1-[6-Cyclopropylmethoxy-5-(3,3-difluoro-azetidin-1-yl)-pyrazine-2-carbonyl]-pyrrolidine-2-carboxylic acid methyl ester] | > 10 | 0.252 |
| O=C1CN(C(=O)c2cnc(N3CC(F)(F)C3)c(OCC3CC3)n2)CCO1 [Example 23, 4-[6-Cyclopropylmethoxy-5-(3,3-difluoro-azetidin-1-yl)-pyrazine-2-carbonyl]-morpholin-2-one] | > 10 | 0.0184 |
| CN(C)C(=S)[C@H]1CCCN1C(=O)c1cnc(N2CC(F)(F)C2)c(OCC2CC2)n1 [Example 24, (R)-1-[6-Cyclopropylmethoxy-5-(3,3-difluoro-azetidin-1-yl)-pyrazine-2-carbonyl]-pyrrolidine-2-carbothioic acid dimethylamide] | > 10 | 0.333 |
| CC(=O)OC1(C)CCN(C(=O)c2cnc(C3CC3)c(OCC3CC3)n2)C1 (stereo not drawn) [Example 25, Acetic acid 1-(5-cyclopropyl-6-cyclopropylmethoxy-pyrazine-2-carbonyl)-3-methyl-pyrrolidin-3-yl ester] | > 10 | 0.11 |
| O=C(c1cnc(C2CC2)c(OCC2CC2)n1)N1CC(F)(F)C(F)(F)C1 [Example 26, (5-Cyclopropyl-6-cyclopropylmethoxy-pyrazin-2-yl)-(3,3,4,4-tetrafluoro-pyrrolidin-1-yl)-methanone] | > 10 | 0.124 |
| CC(=O)O[C@H]1CCN(C(=O)c2cnc(N3CC(F)(F)C3)c(OCC3CC3)n2)C1 [Example 27, Acetic acid (S)-1-[6-cyclopropylmethoxy-5-(3,3-difluoro-azetidin-1-yl)-pyrazine-2-carbonyl]-pyrrolidin-3-yl ester] | > 10 | 0.271 |
| O=C(c1cnc(N2CC(F)(F)C2)c(OCC2CC2)n1)N1CCC2(COC2)C1 [Example 28, [6-Cyclopropylmethoxy-5-(3,3-difluoro-azetidin-1-yl)-pyrazin-2-yl]-(2-oxa-6-aza-spiro[3.4]oct-6-yl)-methanone] | > 10 | 0.204 |
| CC(=O)OC1(C)CCN(C(=O)c2cnc(N3CC(F)(F)C3)c(OCC3CC3)n2)C1 (stereo not drawn) [Example 29, Acetic acid 1-[6-cyclopropylmethoxy-5-(3,3-difluoro-azetidin-1-yl)-pyrazine-2-carbonyl]-3-methyl-pyrrolidin-3-yl ester] | > 10 | 0.0088 |
| O=C(c1cnc(N2CC(F)(F)C2)c(OCC2CC2)n1)N1CC(F)(F)C(F)(F)C1 [Example 30, [6-Cyclopropylmethoxy-5-(3,3-difluoro-azetidin-1-yl)-pyrazin-2-yl]-(3,3,4,4-tetrafluoro-pyrrolidin-1-yl)-methanone] | > 10 | 0.0263 |
| CN(C(=O)c1cnc(N2CC(F)(F)C2)c(OCC(F)(F)F)n1)C(C)(C)C [Example 31, 5-(3,3-Difluoro-azetidin-1-yl)-6-(2,2,2-trifluoro-ethoxy)-pyrazine-2-carboxylic acid tert-butyl-methyl-amide] | > 10 | 0.13 |
| CC1(C)CCCN1C(=O)c1cnc(N2CC(F)(F)C2)c(OCC(F)(F)F)n1 [Example 32, [5-(3,3-Difluoro-azetidin-1-yl)-6-(2,2,2-trifluoro-ethoxy)-pyrazin-2-yl]-(2,2-dimethyl-pyrrolidin-1-yl)-methanone] | > 10 | 0.0812 |
| NC(=O)C1CCCCN1C(=O)c1cnc(N2CC(F)(F)C2)c(OCC2CC2)n1 (stereo not drawn) [Example 33, 1-[6-Cyclopropylmethoxy-5-(3,3-difluoro-azetidin-1-yl)-pyrazine-2-carbonyl]-piperidine-2-carboxylic acid amide] | > 10 | 0.33 |
| CC1(C)CC(C(N)=O)N(C(=O)c2cnc(C3CC3)c(OCC3CC3)n2)C1 (stereo not drawn) [Example 34, 1-(5-Cyclopropyl-6-cyclopropylmethoxy-pyrazine-2-carbonyl)-4,4-dimethyl-pyrrolidine-2-carboxylic acid amide] | > 10 | 0.0016 |
| CC1(C)CC(C(N)=O)N(C(=O)c2cnc(N3CC(F)(F)C3)c(OCC3CC3)n2)C1 (stereo not drawn) [Example 35, 1-[6-Cyclopropylmethoxy-5-(3,3-difluoro-azetidin-1-yl)-pyrazine-2-carbonyl]-4,4-dimethyl-pyrrolidine-2-carboxylic acid amide] | > 10 | 0.0115 |
| CC1(O)C[C@@H](C(N)=O)N(C(=O)c2cnc(N3CC(F)(F)C3)c(OCC3CC3)n2)C1 (stereo partly drawn) [Example 41, (2S)-1-[6-(Cyclopropylmethoxy)-5-(3,3-difluoroazetidin-1-yl)pyrazine-2-carbonyl]-4-hydroxy-4-methylpyrrolidine-2-carboxamide] | > 10 | 0.09 |
| NC(=O)[C@@H]1CC(F)(F)CN1C(=O)c1cnc(N2CC(F)(F)C2)c(OCC(F)F)n1 [Example 42, (2S)-1-[5-(3,3-Difluoroazetidin-1-yl)-6-(2,2-difluoroethoxyl)pyrazine-2-carbonyl]-4,4-difluoro-pyrrolidine-2-carboxamide] | > 10 | 0.31 |
